# Literature values as cited in US6537523B1, “Diagnosis and treatment of cancer having clonal macrophage involvement” (The Regents of the University of California, priority 1994, dated 2003).
# Test system: HIV antigens in human blood cells including macrophages
substance,measurement,value
Trichosanthin,expression of HIV antigens,inhibit expression of HIV antigens
